Data reported in PubChem BioAssay (NCI).
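Interpolation was linear, between the two tested concentrations surrounding the appropriate level; five concentrations were tested over 48 hours in 96-well plates. The concentration for 50% growth inhibition is given as GI50. Definition used: TGI = concentration required for complete inhibition of growth.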

Legend:
Experiment in all cases: inhibition of tumour cell growth, NCI panel, 48 h
M14 melanoma = test system: M14 melanoma
OVCAR-3 ovarian = test system: OVCAR-3 ovarian
SN12C renal = test system: SN12C renal
UO-31 renal = test system: UO-31 renal
HCT-116 colon = test system: HCT-116 colon
UACC-257 melanoma = test system: UACC-257 melanoma
MALME-3M melanoma = test system: MALME-3M melanoma
NCI-H23 lung = test system: NCI-H23 lung
SW-620 colon = test system: SW-620 colon
U251 CNS = test system: U251 CNS

## CC1(C)CCC(CN2CCN(c3ccc(C(=O)NS(=O)(=O)c4ccc(NCC5CCOCC5)c([N+](=O)[O-])c4)c(Oc4cnc5[nH]ccc5c4)c3)CC2)=C(c2ccc(Cl)cc2)C1
M14 melanoma
  GI50: 2.54 µM
  TGI: 7.07 µM
OVCAR-3 ovarian
  GI50: 2.31 µM
  TGI: 5.44 µM
SN12C renal
  GI50: 2.82 µM
  TGI: 11.8 µM
UO-31 renal
  GI50: 2.57 µM
  TGI: 8.26 µM
HCT-116 colon
  GI50: 3.36 µM
  TGI: 11.8 µM
UACC-257 melanoma
  GI50: 1.98 µM
  TGI: 4.94 µM
MALME-3M melanoma
  GI50: 1.82 µM
  TGI: 3.64 µM
NCI-H23 lung
  GI50: 3.13 µM
  TGI: 12.5 µM
SW-620 colon
  GI50: 3.95 µM
  TGI: 16.8 µM
U251 CNS
  GI50: 2.9 µM
  TGI: 11.5 µM

## CC(=O)C(CN1CCOCC1)C(c1ccccc1)c1c(O)c2ccccc2oc1=O (stereo not given)
M14 melanoma
  TGI: > 100 µM
OVCAR-3 ovarian
  TGI: > 100 µM
SN12C renal
  TGI: > 100 µM
UO-31 renal
  TGI: > 100 µM
HCT-116 colon
  TGI: > 100 µM
UACC-257 melanoma
  TGI: > 100 µM
MALME-3M melanoma
  TGI: > 100 µM
NCI-H23 lung
  TGI: > 100 µM
SW-620 colon
  TGI: > 100 µM
U251 CNS
  TGI: > 100 µM

## c1ccc(COc2ccc(Nc3ncnc4ccc(-c5ccco5)cc34)cc2)cc1
M14 melanoma
  GI50: 7.31 µM
  TGI: 19.9 µM
OVCAR-3 ovarian
  GI50: 5.4 µM
  TGI: 12.8 µM
SN12C renal
  GI50: 8.49 µM
  TGI: > 25 µM
UO-31 renal
  GI50: 4.76 µM
  TGI: > 22.1 µM
HCT-116 colon
  GI50: 4.93 µM
  TGI: 12.4 µM
UACC-257 melanoma
  GI50: 7.85 µM
  TGI: 24.4 µM
MALME-3M melanoma
  GI50: 6.04 µM
  TGI: > 21.1 µM
NCI-H23 lung
  GI50: 5.54 µM
  TGI: > 17.9 µM
SW-620 colon
  GI50: 7.47 µM
  TGI: 22.7 µM
U251 CNS
  GI50: 6.99 µM
  TGI: > 25 µM

## COc1ccc(C2=NN(c3ccc(S(N)(=O)=O)cc3)C(c3ccc(Cl)cc3)C2)c(O)c1 (stereo not given)
M14 melanoma
  GI50: 7.89 µM
  TGI: 25.2 µM
OVCAR-3 ovarian
  GI50: 2.6 µM
  TGI: 7.45 µM
SN12C renal
  GI50: 5.09 µM
  TGI: 18.3 µM
UO-31 renal
  GI50: 1.97 µM
  TGI: 13.5 µM
HCT-116 colon
  GI50: 2.32 µM
  TGI: 8.63 µM
UACC-257 melanoma
  GI50: 6.84 µM
  TGI: 42 µM
MALME-3M melanoma
  GI50: 4.03 µM
  TGI: 16.7 µM
NCI-H23 lung
  GI50: 3.32 µM
  TGI: 13.7 µM
SW-620 colon
  GI50: 3.68 µM
  TGI: 14.8 µM
U251 CNS
  GI50: 4.47 µM
  TGI: 21.2 µM

## Cc1cc(N(CCC#N)CCC#N)ccc1N=Nc1ccc([N+](=O)[O-])cc1
M14 melanoma
  TGI: > 100 µM
OVCAR-3 ovarian
  TGI: > 100 µM
SN12C renal
  TGI: > 100 µM
UO-31 renal
  TGI: > 100 µM
HCT-116 colon
  TGI: 31.6 µM
UACC-257 melanoma
  TGI: > 100 µM
MALME-3M melanoma
  TGI: > 100 µM
NCI-H23 lung
  TGI: > 100 µM
SW-620 colon
  TGI: > 10 µM
U251 CNS
  TGI: 36.1 µM
